Data: patent US20110021588A1, “SUBLINGUAL DEXMEDITOMIDINE COMPOSITIONS AND METHODS OF USE THEREOF” (RECRO PHARMA, INC., priority 2009, published 2011)
Like-named read-outs stand apart in the source and are kept apart here.

What was measured:
[1] = in vivo; conditions: male, Beagle, dog
Procedure: The purpose of the study was to assess the pharmacokinetics and absolute bioavailability of dexmedetomidine in a group of five Beagle dogs (males, each aged 5 to 8 months and weighing between 7.5 and 9.2 kg) following sublingual spray administration of the different formulations described in Tables 1 and 2.
For sublingual administration, a spray application was administered by one depression of a pump device into the oral cavity under the tongue. In order to ensure proper pump priming, two actuations were performed prior to dosing. Following dose administration, serial blood samples were collected form each subject animal by venipuncture of a jugular vein as follows: 0 (predose), 0.083, 0.167, 0.25, 0.33, 0.5, 1, 2, and 6 hours post-sublingual dose. […] Blood samples were collected in vacutainer tubes containing K2EDTA as anticoagulant, and derived plasma samples were stored frozen until analyzed.

[2] = human, cited from earlier work
[3] = human, cited from earlier work; remark: listed apart in the source

Which results are given for `Cc1cccc([C@H](C)c2cnc[nH]2)c1C` [dexmedetomidine, 5-[(1S)-1-(2,3-dimethylphenyl)ethyl]-1H-imidazole]?
Cmax [1]: 0.914 ng/mL; Tmax [1]: 0.333 h; absolute bioavailability ([2]; i.m. administration): 73%; time to maximum concentration in blood ([2]; i.m. administration): 1.6 to 1.7 h; mean elimination half-life ([2]; i.m. dosing): 3 h; mean elimination half-life ([2]; i.v. dosing): 1.5 h; absolute bioavailability ([2]; transdermal administration): 88%; mean elimination half-life ([2]; transdermal administration): 5.6 h; time to maximum concentration in blood ([2]; transdermal administration): 6 h; apparent elimination half-life ([3]; buccal): 1.9 h; time of maximum concentration ([3]; buccal): approximately 1.5 h; mean buccal bioavailability ([3]; solution held in mouth without swallowing): 81.8%
